Consider 16 molecules from paper PMC2008936 (British Journal of Cancer, 1973).

For data set [1], the system named is E. coli AB 2480 (uvrA recA).
A further data set concerns S. typhimurium TA 1530. The class given is cell-based, Salmonella typhimurium.
Another data set in a line: in vitro. Conditions: male, Wistar, Escherichia coli (indicator bacteria); rat (liver fraction).
Data set [2] has as its system bacterial transforming DNA. Conditions: cited from earlier work.
For the next data set, the system named is rat liver. Conditions: in vivo; cited from earlier work.
Another data set relates to Drosophila. Conditions: in vivo; cited from earlier work.
Another data set relates to S. typhimurium his G46. Type of data set: cell-based, Salmonella typhimurium.
The next data set has as its system S. typhimurium his C207. The class given is cell-based, Salmonella typhimurium.
A further data set has as its system Neurospora. Conditions: cited from earlier work.
For data set [3] the following is noted: microsomes.

In the case of `O=C1c2cc(O)cc(O)c2C(=O)c2c1cc1c(c2O)[C@@H]2C=CO[C@@H]2O1` [Versicolorin A, versicolorin A], in [1], the “Formation of toxic metabolites on incubation with mixed function oxidases” value (“Formation of toxic metabolites” below) was “Toxic metabolites were also formed”.
With `COc1c2c(c3oc4cccc(O)c4c(=O)c3c1OC)C1C=COC1O2` (centres unmarked) [5-methoxysterigmatocystin], the “Formation of toxic metabolites” value in data set [1] is “Toxic metabolites were also formed”.
Still for that read-out and setting: next, `COc1cccc2oc3c4c(cc(OC)c3c(=O)c12)OC1OC=CC41` (centres unmarked) [O-methylsterigmatocystin]: “Toxic metabolites were also formed”.
Regarding `CSCC[C@H](N)C(=O)O` [methionine], in the data set with S. typhimurium TA 1530, the “Effect of added agent on bacterial killing by the aflatoxin B1 metabolite” value (“Effect of added agent” below) is given as “did not alter bacterial killing”.
The same measure, in the same setting: next, `C1CCC2OC2C1` (centres unmarked) [cyclohexene oxide]: “did not alter bacterial killing”.
Turning to `CCC1(c2ccccc2)C(=O)NC(=O)NC1=O` [Phenobarbitone, phenobarbitone, reference compound], the “Effect of pretreatment of rats on amount of lethal aflatoxin B1 metabolite formed by liver” value in data set [1] is given as “an increase was observed”.
On the same count and under the same terms, next, `c1ccc2c(c1)cc1ccc3cccc4ccc2c1c34` [benzo(a)pyrene, reference compound]: “did not alter the amount”.
In the case of `O=S([O-])([O-])=S.[Na+].[Na+]` [sodium thiosulphate], in the data set on S. typhimurium TA 1530, the “Effect of added agent” value is on record as “did not alter bacterial killing”.
Turning to `Cc1ccc2cc3c(ccc4ccccc43)c3c2c1CC3` [3-methylcholanthrene, reference compound], the “Effect of pretreatment of rats on amount of lethal aflatoxin B1 metabolite formed by liver” value in [1] is recorded as “did not alter the amount”.
Consider sodium sulphide, for which, in the data set on S. typhimurium TA 1530, the “Effect of added agent” value is listed as “did not alter bacterial killing”.
For `COc1cc2c(c3oc(=O)cc(CCO)c13)C1C=COC1O2` (centres unmarked) [Parasiticol, parasiticol], the “Formation of toxic metabolites” value in [1] is given as “Toxic metabolites were also formed”.
In the case of `COc1cc2c(c3oc4cccc(O)c4c(=O)c13)[C@@H]1C=CO[C@@H]1O2` [sterigmatocystin], the “Survival [no. viable bacteria (treated)/no. viable bacteria (control) x 100]” value in [1] was 0- 3. Further, the viability (commonly a per cent measure of how many cells are alive, often set against a control) in the data set “in vitro” was 0.5%.
In the case of `N[C@@H](CCC(=O)N[C@@H](CS)C(=O)NCC(=O)O)C(=O)O` [glutathione], the “Effect of added agent” value with S. typhimurium TA 1530 is recorded as “did not alter bacterial killing”.
Regarding aflatoxin B1, the Mutagenicity entry (in [2]; with Drosophila; in the data set on Neurospora) was “mutagenic” in each case. For the same molecule, the “Effect of incubation at 30 C on number of bacteria killed” value with S. typhimurium TA 1530 is on record as “a decrease in the number of bacteria killed”. Moreover, in the data set on rat liver, the Liver carcinogenicity result is “most potent liver carcinogen known for the rat”. In data set [1], the “Killing activity with heat denatured liver preparation” value was “abolished all killing activity”. Moreover, the “Mutation of the strain by the aflatoxin B1 metabolite” value in the data set on S. typhimurium his G46 and in the data set with S. typhimurium his C207 was “not mutated by it” each time. Moreover, the “Sensitivity of the strain to the toxic effects of the metabolite” value with S. typhimurium his G46 and in the data set with S. typhimurium his C207 was “resistant to the toxic effects” throughout.
`N[C@@H](CS)C(=O)O` [cysteine]: the “Effect of added agent” value in the data set with S. typhimurium TA 1530 is given as “did not alter bacterial killing”.
Regarding `OCC(S)CS` (centres unmarked) [2,3-Dimercaptopropanol], in the data set with S. typhimurium TA 1530, the “Effect of added agent” value is listed as “some protective action”, the “Inhibition of killing (fold)” value is reported as “three-fold” and the “Survivors in the presence of dimercaptopropanol” value is recorded as 42%. The “Effect on amount of aflatoxin B1 metabolized” value in [3] was “no alteration in the amount of aflatoxin B1 metabolized”.
